In patent EP0771560A1, “Use of 2- N-(1,2-benzoisothiazolyl-3(2H)one-1,1-dioxide ethyl 5-ethoxycarbonyl-2,4,6-trimethyl-1,4-dihydropiridine-3-carboxylate in the treatment of vascular disorders” (LABORATORIOS ALTER, S.A., priority 1995, dated 1997):
Read-outs that look alike come from different tables or passages of the source.

How the values were obtained:
[1] = test system: atheromatous smooth muscle cells (ASA); test: Intracellular communication: transference of Lucifer Yellow dye after microinjection, atheromatous cells; type: cell-based, human; details: 0.4 µM (200 ng/ml for PCA-4230), incubated for 1 hour
Text: (§1) Materials and Methods. Non-arteriosclerotic aorta smooth muscle cells (NASA), obtained from biopsies of organs to be used in heart transplants were used. The atheromatous smooth muscle cells (ASA) were obtained from biopsies obtained from arteriosclerotic arteries coming from aorta reconstruction. These biopsies were used as a source for cultures by explant, avoiding the use of enzymatic additives or detergents. The cells were left to grow until confluence, in M199 medium, supplemented with 5% BFS and antibiotics as in the previous example. The pureness of the cultures was determined by specific staining of the same with anti-α actin of smooth muscle cells.
(§2) Intracellular communication was studied by evaluating the transference of the fluorescent dye Lucifer Yellow from a single cell, in which it is inserted by microinjection, to the surrounding cells. The extent of this transference of dye was determined in 40 normal cells and in 100 atheromatous cells.
(§3) The same experiment was carried out with Verapamyl 0.4 µM, used as a standard drug with calcium antagonist activity and with 0.02% dimethylsulfoxide, the vehicle used in both cases.
(§4) The same study was repeated with the vehicle and with Verapamyl.

[2] = test system: A10 cells; test: Inhibition of smooth muscle cell proliferation induced by bovine fetal serum (DNA synthesis by inclusion of BrdU); type: cell-based, rat; details: for inhibition at 50 µM / inhibition at 0.5 µM / inhibition at 5 µM: Rattus norvegicus; for % LABELED CELLS (Average ± S.D.): 10% bovine fetal serum, BrdU inclusion
Description: In these experiments a rat aorta smooth muscle cell line obtained from American Type Culture Collection (ATCC;A10 CRL 1476) was used. The cells were grown in a humidified atmosphere (37^º C; 95% air - 5% CO2) in Dulbecco's Modified Eagle Medium (DMEM) containing 10 % bovine fetal serum supplemented with 20 mM L-glutamine, 100 IU/ml penicillin, 100 µg/ml streptomycin and 0.25 µg/ml Amphotericin B (antibiotic-antimycotic solution, Gibco). The medium was replaced every two days.
To study the effect of PCA-4230 and of the other compounds, the DNA synthesis was measured by deterimining the inclusion of BrdU (an analogue of thymidine). The cells were isolated by trypsinization (trypsin 0.05% in EDTA 0.02%) and were seeded on glass cover-glasses in culture plates of 24 cups, at a density of 10^4 cells per cup. The cells were grown for 24 hours in DMEM with 10% BFS to allow adhesion of the cells to the slides. Afterwards, the cells were washed with serum-free DMEM containing 0.2% bovine serum albumin (BSA). They were incubated for 48 hours in the same medium to obtain quiescent cells. Afterwards, proliferation was induced by replacement of the medium by DMEM containing 10% bovine fetal serum, along with the vehicle or drugs at the suitable concentrations (0.5 to 50 µM for PCA-4230 and 50 µM for the rest of the compounds): The cells were grown in these conditions for 16 hours and, afterwards, BrdU was added and the culture was continued for two to three hours.

[3] = test system: smooth muscle cells; details: from J. Bernhardt et al. (1993); cited from earlier work
[4] = test system: c-fos and c-jun proto-oncogenes; test: Expression of c-fos and c-jun proto-oncogenes (Northern hybridization of total RNA) in serum-stimulated cells; type: cell-based, rat; details: 5x10^-5M; cells stimulated for 30 minutes with 10% FCS; result in words
Description: The expression of the c-fos and c-jun proto-oncogenes was analyzed in cells fasted for 48h (cultured in serum-free DMEM, containing BSA 0.2%) and subsequently stimulated for 30 minutes with 10% FCS in the presence of absence of PCA-4230 (5x10^-5M). The total RNA was extracted from said cells using a previously described method (P Chomczynski and N. Sacchi (1987), Ann. Biochem. 162: 156-159).
Immediately, the extracted RNA (10 µg) was resolved by eletrophoresis in agarose gel (1.2% agarose + formaldehyde + formamide). The gel was then transferred to a nylon membrane and this was hybridized with specific probes for c-fos and c-jun (previously labeled with [^32P]-deoxy CTP). The membrane was finally exposed to a sensitive film (Kodak X-OMAT) for 8-17 hours at -70^º C. The level of expression of the oncogenes was brought back to normal by using a specific probe for β-actin.

[5] = test system: Non-arteriosclerotic aorta smooth muscle cells (NASA); test: Intracellular communication: transference of Lucifer Yellow dye after microinjection, normal cells; type: cell-based, human; details: NORMAL (HEALTHY) cells, 0.4 µM, incubated for 1 hour
Text: as §1, §2, §3, §4

[6] = test system: gap junctions; test: Freeze Fracture Electron Microscopy (FFEM) of gap junction morphology; type: cell-based, human; details: cells treated with PCA-4230, result in words
Text: Subsequently, the cells were fixed with glutaraldehyde and were studied by FFEM "Freeze Fracture Electron Microscopy" to determine the morphology of the gap junctions. The cells were frozen at -110^º C and were fractured. The breakage planes are the planes with less resistance that correspond to the surface of the inside membrane, between lipid bilayers.

[7] = Phase II Clinical Trial, Internal Report; result in words; cited from earlier work
[8] = Table Ib, 50,0 µM/L, two experiments in triplicate
[9] = Table Ib, 50,0 µM/L, versus vehicle
[10] = A10, Table Ib, 50,0 µM/L, versus vehicle, read-out: % INHIBITIÓN

COc1ccc(CCN(C)CCCC(C#N)(c2ccc(OC)c(OC)c2)C(C)C)cc1OC (stereo not drawn) [VERAPAMYL, Verapamyl, reference compound]
N° CELLS LABELED BY INJECTION [1]: 7,20 ± 0,54
N° CELLS LABELED BY INJECTION ([1]; listed as Verapamyl): did not show any significant effects

CC(=O)Oc1ccccc1C(=O)O [ASPIRIN, aspirin, reference compound]
inhibition at 50 µM ([2]; A10, read-out: % INHIBITIÓN): 25.5%
% LABELED CELLS (Average ± S.D.) [2, 8]: 22.2 ± 1,8%
% INHIBITIÓN [2, 9]: weak inhibitory effect
aspirin concentrations at which inhibition of the proliferation of smooth muscle cells is achieved [3]: higher than 270 µM

Clc1ccccc1CN1CCc2sccc2C1 [THICLOPYD., Thiclopydine, reference compound]
inhibition at 50 µM [2, 10]: 17.1%
% LABELED CELLS (Average ± S.D.) [2, 8]: 24,7 ± 1,5%
% INHIBITIÓN [2, 9]: weak inhibitory effect

CCOC(=O)C1=C(C)NC(C)=C(C(=O)OCCN2C(=O)c3ccccc3S2(=O)=O)C1C (stereo not drawn) [PCA-4230]
cell proliferation induced by bovine fetal serum ([2]; 0.5 to 50 µM, result in words): inhibited cell proliferation induced by bovine fetal serum proportionally to the concentration
inhibition at 0.5 µM ([2]; A10, Table Ia, 0,5 µM/L, versus vehicle, read-out: % INHIBITIÓN): 26.1%
inhibition at 5 µM ([2]; A10, Table Ia, 5,0 µM/L, versus vehicle, read-out: % INHIBITIÓN): 53.2%
inhibition at 50 µM ([2]; A10, Table Ia, 50,0 µM/L, versus vehicle, read-out: % INHIBITIÓN): 95.1%
inhibition at 0.5 µM ([2]; A10, Table Ib, 0,5 µM/L, versus vehicle, read-out: % INHIBITIÓN): 25%
inhibition at 5 µM ([2]; A10, Table Ib, 5,0 µM/L, versus vehicle, read-out: % INHIBITIÓN): 57.4%
inhibition at 50 µM [2, 10]: 87.9%
% LABELED CELLS (Average ± S.D.) ([2]; Table Ia, 0,5 µM/L, three experiments in triplicate): 15,0 ± 2,3%
% LABELED CELLS (Average ± S.D.) ([2]; Table Ia, 5,0 µM/L, three experiments in triplicate): 9,5 ± 1,1%
% LABELED CELLS (Average ± S.D.) ([2]; Table Ia, 50,0 µM/L, three experiments in triplicate): 1,0 ± 0,6%
% LABELED CELLS (Average ± S.D.) ([2]; Table Ib, 0,5 µM/L, two experiments in triplicate): 22,3 ± 0,9%
% LABELED CELLS (Average ± S.D.) ([2]; Table Ib, 5,0 µM/L, two experiments in triplicate): 12,7 ± 1,4%
% LABELED CELLS (Average ± S.D.) [2, 8]: 3,6 ± 0,3%
transcription of the c-fos and c-jun proto-oncogenes [4]: suppressive effect
N° CELLS LABELED BY INJECTION [1]: 2.42 ± 0.34
N° CELLS LABELED BY INJECTION [5]: 2,40 ± 0,18
morphology, distribution and number of the gap junctions [6]: No differences were observed
hypolipidemic effect [7]: moderate hypolipidemic effect
